{"source": "paper PMC7408493", "about": "“Implication of Opioid Receptors in the Antihypertensive Effect of a Novel Chicken Foot-Derived Peptide” (Biomolecules, 2020)", "system": "Caco-2 cell monolayers", "assay": "Transepithelial transport through Caco-2 monolayer", "type": "in vitro ADME", "settings": "1 h, 37 °C, UHPLC-HRMS", "protocol": "Caco-2 cells were obtained from Sigma-Aldrich and were grown Dulbecco’s modified minimum essential medium (DMEM), supplemented with 20% fetal bovine serum (FBS), […] L-glutamine, 100 U/mL penicillin and 100 μg/mL streptomycin at 37 °C in and 5% CO2. Cells were seeded onto Transwell inserts permeable membrane support (0.4 µm pore, 24 mm diameter, 4.7 cm^2 grown surface from Merck Co., Bedford, MA, USA) placed in six-well plates. The seeding density was 12,000 cell/cm^2. The medium was replaced every 2–3 days and cells were growing for 21 days. On the 21st day of the procedure, the integrity of the Caco-2 monolayer was assessed by the measurement of transepithelial electrical resistance (TEER) using a Millicell ERS-2 voltammeter (EMD Millipore, Darmstadt, Germany) selecting the ones with TEER values higher than 200 Ω/cm^2.\nFor the transport study, Caco-2 cells, maintained in DMEM, were gently rinsed with Hank’s balanced salt solution (HBSS) and equilibrated for 20 min at 37 °C prior to the transport study. Then, it was evaluated the transepithelial transport of the peptide […] (1 mM) dissolved in HBSS and the digests obtained in the in vitro simulated digestion (G60 and D60). […] or the peptide digests G60 and D60 were added to the apical (AP) chamber and were incubated for 1 h at 37 °C. After this time, triplicates of the AP chamber content and the basolateral (BL) chamber content were taken and stored at −80 °C until ultra-high performance liquid chromatography-high resolution mass spectrometry (UHPLC-HRMS) analyses.\nSamples obtained from in vitro peptide simulated digestion and Caco-2 monolayers were diluted 10 times with water (0.1% FA) and centrifuged (15,000 rpm, 15 min, 4 °C). Supernatants were directly analyzed by UHPLC-HRMS to avoid the loss of polar peptide fragments. Extensive clean-up or pre-concentration procedures were not necessary due to the high concentration of peptide and low matrix complexity than plasma samples.\nThe obtained purified solutions from plasma and peptide digests G60 and D60 and from AP and BL chambers in Caco-2 experiment were analyzed using a UHPLC 1290 Infinity II Series coupled to a QqQ 6490 Series (Agilent Technologies, Santa Clara, CA, USA) for tandem mass experiments or a qTOF 6550 Series (Agilent Technologies) for high-resolution mass spectrometry experiments. Chromatographic separation of peptide or their fragments were performed using a Kinetex 2.6 µm EVO C18 column (150 × 2.1 mm, […]) from (Phenomenex, Torrance, USA) as stationary phase and water containing 0.1% formic acid (solvent A) and acetonitrile (solvent B) as mobile phase. The separation was performed in gradient elution as follows: isocratic; 0–0.5 min, 2 % B; 0.5–1 min, 2–6% B; 1–5 min, 6–15% B; 5–6 min, 15–35% B; 6–10 min, 35–98% B; 10–12 min, 98% B isocratic; 12–12.10, 98–2% B. For all runs, 10 μL of the sample (4 °C) was injected, and the flow rate was 0.350 mL/min and the column temperature was 25 °C.\nFor in vitro simulated digestion experiments and Caco-2 monolayer samples, qTOF instrument was used to investigate the presence of unknown peptide fragments and previously in silico predicted peptide fragments by means of its accurate mass. Peptide and its fragments were semi-quantified using the chromatographic peak area observed in the extracted ion chromatograms using a 20 ppm mass window.", "note": "Ends that are not written are not given here."}
{"sequence": "AVFQHNCQE", "values": [{"measurement": "G60 % Transport", "setting": "21 days, TEER > 200 Ω/cm^2, gastric digest G60 added to apical chamber, AP to BL, HBSS, content in basolateral chamber in comparison to apical chamber, triplicates", "result": 0.25, "unit": "%"}, {"measurement": "Absorption through the intestinal monolayer", "setting": "native peptide 1 mM in HBSS or digests in apical chamber", "result": "not absorbed through the intestinal monolayer"}]}
